The text below walks through data of patent US8765767B2, “Positive allosteric modulators of mGluR2” (Bristol-Myers Squibb Company, priority 2012, dated 2014).

Usually EC50 stands for the concentration at which the effect is half-maximal. A higher EC50 goes with lower potency in that assay.

Each structure is given as a SMILES string.

In the assay the target is T1, human mGluR2 (Homo sapiens, UniProt Q14416).
T1 construct: expressed in transfected cells; host or cells: HEK293 clonal line
T1 sequence (Q14416 19-872): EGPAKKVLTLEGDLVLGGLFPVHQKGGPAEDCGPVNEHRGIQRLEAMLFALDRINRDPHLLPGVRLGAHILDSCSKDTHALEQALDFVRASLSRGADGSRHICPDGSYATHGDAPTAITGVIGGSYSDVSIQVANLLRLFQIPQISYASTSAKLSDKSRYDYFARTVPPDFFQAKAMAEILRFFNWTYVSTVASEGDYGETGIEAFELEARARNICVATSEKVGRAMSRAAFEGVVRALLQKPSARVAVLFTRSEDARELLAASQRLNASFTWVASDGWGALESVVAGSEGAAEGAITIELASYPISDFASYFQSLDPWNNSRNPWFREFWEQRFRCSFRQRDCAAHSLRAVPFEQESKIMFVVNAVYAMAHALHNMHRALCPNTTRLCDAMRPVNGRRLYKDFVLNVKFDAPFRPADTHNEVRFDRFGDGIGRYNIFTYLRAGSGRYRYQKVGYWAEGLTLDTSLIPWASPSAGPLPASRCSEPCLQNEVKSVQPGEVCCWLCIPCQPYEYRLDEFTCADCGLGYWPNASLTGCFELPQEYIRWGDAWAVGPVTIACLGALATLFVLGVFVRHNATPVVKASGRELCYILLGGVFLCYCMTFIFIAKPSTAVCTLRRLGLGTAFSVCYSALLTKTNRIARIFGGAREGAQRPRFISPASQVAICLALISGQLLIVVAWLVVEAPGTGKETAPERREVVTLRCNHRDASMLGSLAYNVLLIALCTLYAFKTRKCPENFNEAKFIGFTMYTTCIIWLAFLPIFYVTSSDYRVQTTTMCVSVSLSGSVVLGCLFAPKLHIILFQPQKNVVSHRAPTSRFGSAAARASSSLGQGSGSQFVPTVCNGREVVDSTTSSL
Put plainly: mGluR2 cAMP assay (HTRF) in HEK293 cells clonally expressing human mGluR2. The conditions noted are these: HEK293 cells expressing human mGluR2, 1 μM forskolin, 1 μM LY-341495, 30 min. Format: cell-based. As to the method:
• Cell Culture. Clonally expressed human mGluR2 in HEK293 background was glutamate starved overnight in media without glutamine (GIBCO MEM 12360), containing 10% FBS, 1% penicillin streptomycin. • cAMP Measurement. On the day of the assay, media was removed, cells washed with PBS, cells harvested and pelleted by centrifugation. Cell pellets were resuspended in stimulation buffer without forskolin and counted. A solution of 1.25×10^6 cells/mL was prepared and dispensed to plates using a Combi liquid handler (Thermo). A standard curve was created using a top concentration of cAMP of 1 μM in the stimulation buffer, 1:3 dilutions over 14 points in the absence of cells. Plates were read by time-resolved fluorescence at […] and a ratio was calculated via in house software, (665 nM/618 nM)*10^4. In house software converted the fluorescence value ratios to units of cAMP concentration, which is then used to calculate % inhibition for each test compound. • MGluR2 cAMP Assay Materials and Methods. Compounds were added to white, standard volume 384 non-binding surface plates (Corning 3574). Cells were resuspended in stimulation buffer consisting of Hanks Balanced Salt Solution (14175-095) pH 7.0, 20 mM HEPES, 2.0 mM CaCl2, 5.0 mM MgCl2, and 1 mM IBMX (Sigma 15879), 1 μM forskolin, and 1 μM LY-341495 for 30 min. Buffer without forskolin was used as a negative control. Solutions of D2 and cryptate detection reagents from the CISBIO dynamic cAMP kit (62AM4PEJ) were diluted 1:40 in lysis buffer. Lysis buffer consisted of 50 mM Phosphate Buffer pH 7.0, 800 mM Potassium Fluoride, 0.2% BSA, and 1.0% Triton. Assay reaction was terminated by addition of detection reagents in lysis buffer. One hour later, plates were read on a PE Viewlux. Data was extracted, and concentration response curves generated by fitting the data to a standard 4 parameter logistic equation from which EC50 values were determined.
(In general: Changes in cAMP serve as a functional read-out for many G protein-coupled receptors.)
Regarding `Fc1cnc(C2CC2CNc2ccn3c(CC4CC4)nnc3c2C(F)(F)F)nc1` (stereo not drawn) [Example 13, 3-(Cyclopropylmethyl)-N-((2-(5-fluoropyrimidin-2-yl)cyclopropyl)methyl)-8-(trifluoromethyl)-[1,2,4]triazolo[4,3-a]pyridin-7-amine], the EC50 came to 102 nM.

`Fc1ccc([C@H]2C[C@@H]2CNc2ccn3c(CC4CC4)nnc3c2Cl)cc1` [Example 5, 8-Chloro-3-(cyclopropylmethyl)-N-(((1S,2S)-2-(4-fluorophenyl)cyclopropyl)methyl)-[1,2,4]triazolo[4,3-a]pyridin-7-amine] displayed a concentration for a half-maximal effect (EC50) of 5 nM.

On to `Fc1ccc(C2CC2CNc2ccn3c(CC4CC4)nnc3c2Cl)cc1` (racemic) [Example 1, 8-chloro-3-(cyclopropylmethyl)-N-((2-(4-fluorophenyl)cyclopropyl)methyl)-[1,2,4]triazolo[4,3-a]pyridin-7-amine], for which the EC50 is 9 nM.

In turn, `Fc1ccc([C@H]2C[C@@H]2CNc2ccn3c(CC(F)(F)F)nnc3c2C(F)(F)F)cc1` [Example 21, N-(((1S,2S)-2-(4-Fluorophenyl)cyclopropyl)methyl)-3-(2,2,2-trifluoroethyl)-8-(trifluoromethyl)-[1,2,4]triazolo[4,3-a]pyridin-7-amine] gave an EC50 of 2 nM.

Regarding `N#Cc1c(NCC2CC2c2cccc(F)c2)ccn2c(CC(F)(F)F)cnc12` (stereo not drawn) [Example 26, 7-(((2-(3-Fluorophenyl)cyclopropyl)methyl)amino)-3-(2,2,2-trifluoroethyl)imidazo[1,2-a]pyridine-8-carbonitrile], the EC50 came out at 54 nM.

Molecule `Clc1c(NC[C@@H]2C[C@H]2c2cccc3c2OCC3)ccn2c(CC3CC3)nnc12` [Example 36, 8-Chloro-3-(cyclopropylmethyl)-N-(((1R,2R)-2-(2,3-dihydrobenzofuran-7-yl)cyclopropyl)methyl)-[1,2,4]triazolo[4,3-a]pyridin-7-amine] returned an EC50 of 2 nM.

Turning to `N#Cc1ccccc1C1CC1CNc1ccn2c(CC3CC3)nnc2c1Cl` (stereo not drawn) [Example 17, 2-(2-(((8-chloro-3-(cyclopropylmethyl)-[1,2,4]triazolo[4,3-a]pyridin-7-yl)amino)methyl)cyclopropyl)benzonitrile], the EC50 was 6 nM.

Turning to `Clc1c(NC[C@H]2C[C@@H]2c2cccc3c2CCO3)ccn2c(CC3CC3)nnc12` [Example 11, 8-Chloro-3-(cyclopropylmethyl)-N-(((1S,2S)-2-(2,3-dihydrobenzofuran-4-yl)cyclopropyl)methyl)-[1,2,4]triazolo[4,3-a]pyridin-7-amine], the EC50 was found to be 12 nM.

Molecule `COc1ccccc1[C@@H]1C[C@H]1CNc1ccn2c(CC3CC3)nnc2c1Cl` (relative stereo) [Example 6, Trans-8-chloro-3-(cyclopropylmethyl)-N-((2-(2-methoxyphenyl)cyclopropyl)methyl)-[1,2,4]triazolo[4,3-a]pyridin-7-amine] registered an EC50 of 7 nM.

As to `CN(C[C@H]1C[C@@H]1c1ccc(F)cc1)c1ccn2c(CC(F)(F)F)nnc2c1C(F)(F)F` [Example 41, N-(((1S,2S)-2-(4-fluorophenyl)cyclopropyl)methyl)-N-methyl-3-(2,2,2-trifluoroethyl)-8-(trifluoromethyl)-[1,2,4]triazolo[4,3-a]pyridin-7-amine], the EC50 worked out at 2 nM.

Regarding `FC(F)(F)Oc1ccccc1[C@@H]1C[C@H]1CNc1ccn2c(CC3CC3)nnc2c1Cl` (relative stereo) [Example 9, Trans-8-chloro-3-(cyclopropylmethyl)-N-((2-(2-(trifluoromethoxy)phenyl)cyclopropyl)methyl)-[1,2,4]triazolo[4,3-a]pyridin-7-amine], the EC50 was determined as 4 nM.

`Fc1ccc([C@@H]2C[C@H]2CNc2ccn3c(CC4CC4)nnc3c2C(F)(F)F)cc1` [Example 22, 3-(Cyclopropylmethyl)-N-(((1R,2R)-2-(4-fluorophenyl)cyclopropyl)methyl)-8-(trifluoromethyl)-[1,2,4]triazolo[4,3-a]pyridin-7-amine] displayed an EC50 of 1 nM.
